Measurements reported in patent US5616715A, “Dihydropyridine-3, 5-dicarboxylic acid ester derivatives” (Yamanouchi Pharmaceutical Co., Ltd., priority 1984, dated 1997).
Structures can show the parent of a compound that is named as a salt.

What was measured:
[1] = tested on: coronary artery; assay: Coronary Vasodilating Effect in Anesthetized Dogs (direct intracoronary administration); format: in vivo; conditions: 1 μg directly into coronary artery; for Overall increase in coronary blood flow at 1 μg: area under the percent increase in coronary blood flow
Description: (1) Coronary Vasodilating Effect in Anesthetized Dogs
In open-chest dogs anesthetized with 30 mg/kg i.v. of pentobarbital sodium, arterial blood from the carotid artery was led to circumflex branch of the left coronary artery by a extracorporeal loop. A servocontrolled pure (model 1215D, Harvard Apparatus) was incorporated in the circuit to maintain a constant perfusion pressure of 120 mmHg by means of a pump controller (SCS-22, Data Graph Co., Tokuya Tukada et al., Folia Pharmacol. Japon, 74, 59p, 1978). An electromagnetic flow probe of extracorporeal type (MF-25, Nihon Koden) was also inserted in the circuit to record coronary blood flow. A dose of 1 μg of the compound was administered directly into the coronary artery and then coronary blood flow was monitored until the blood flow returned to the pretreatment value. And then, the area under the percent increase in coronary blood flow after intracoronary injection of 1 μg of the compound was calculated and used as an index of the overall increase in coronary blood flow.

[2] = Hypotensive Effect in Anesthetized Rats; format: in vivo; conditions: for ED (30 mmHg): Rattus norvegicus, iv, urethane-anesthetized rats, dose required to lower mean blood pressure by 30 mmHg
Description: (2) Hypotensive Effect in Anesthetized Rats
Blood pressure was measured in urethane-anesthetized rats. The compound was intravenously administered in an increasing dose manner at an interval of 20 minutes. The doses of the compounds required to lower mean blood pressure by 30 mmHg (ED 30 mmHg) was calculated from the dose-response curves and summarized in Table 2.

[3] = Acute Toxicity in Mice; conditions: mouse, in vivo; oral, six weeks old male ICR mice, suspended in 0.5% methylcellulose; Litchfield & Wilcoxon
Description: (3) Acute Toxicity in Mice
Six weeks old and male ICR mice weighing 27 to 29 g were used. The compound was suspended in 0.5% methylcellulose solution and administered orally to mice. The LD50 values of the compounds were calculated by the method of Litchfield & Wilcoxon (Journal of Pharmacol. & Exp. Therap., 96, 99-113, 1949) and summarized in Table 3.

[4] = U.S. Pat. No. 4,220,649; U. K. Patent No. 2,014,134; cited from earlier work

Row | Structure (SMILES) | Duration of the action [1] [min] | Overall increase in coronary blood flow at 1 μg [1] | ED (30 mmHg) [2] [mg/kg] | hypotensive activity, potency ratio to diastereoisomer B hydrochloride ([2]; anesthetized rats, i.v.) | LD50 [3] [mg/kg] | duration of the vasodilating and hypotensive effect [4] | vasodilating activity and hypotensive activity [4]
1 | COC(=O)C1=C(C)NC(C)=C(C(=O)OC2CCN(Cc3ccccc3)C2)C1c1cccc([N+](=O)[O-])c1 (single isomer, unassigned) [Diastereoisomer A (dl form) hydrochloride, 2,6-dimethyl-4-(3-nitro-phenyl)-1,4-dihydropyridine-3,5-dicarboxylic acid 3-(1-benzylpyrrolidin-3-yl)ester 5-methyl ester] | 60 | 1816 ± 377 %, min. | 0.002 | about 70 times | 295 |  | 
2 | COC(=O)C1=C(C)NC(C)=C(C(=O)OC2CCN(Cc3ccccc3)C2)C1c1cccc([N+](=O)[O-])c1 (stereo not drawn) [YM-09730, 2,6-dimethyl-4-(3-nitropheny)-1,4-dihydropyridine-3,5-dicarboxylic acid 3-(1-benzylpyrrolidin-3-yl)ester 5-methyl ester] |  |  |  |  |  | prolonged effect | has a vasodilating activity and a hypotensive activity
3 | COC(=O)C1=C(C)NC(C)=C(C(=O)OC2CCN(Cc3ccccc3)C2)C1c1cccc([N+](=O)[O-])c1 (racemic) [Diastereoisomer B (dl form) hydrochloride] | 5 | 120 ± 28 %, min. | 0.14 |  |  |  | 
4 | COC(=O)C1=C(C)NC(C)=C(C(=O)O[C@H]2CCN(Cc3ccccc3)C2)C1c1cccc([N+](=O)[O-])c1 (single isomer, unassigned) [Diastereoisomer A (d form) hydrochloride] | 120 | 4559 ± 894 %, min. |  |  | 190 |  | 
5 | COC(=O)C1=C(C)NC(C)=C(C(=O)OC2CCN(Cc3ccccc3)C2)C1c1cccc([N+](=O)[O-])c1 (racemic) [Equivalent mixture of the hydrochlorides of diastereoisomers] | 10 | 129 ± 47 %, min. |  |  |  |  | 
